Results published in patent EP1247803A2, “Indolinone compounds suitable for modulation of protein kinases” (Sugen, Inc., priority 1996, dated 1998).

Key:
PDGF-R = PDGF-R (Homo sapiens, UniProt P09619); experiment: PDGF-R ELISA; format: cell-based
Description: A PDGF-R ELISA is described in International Patent Publication No. WO 96/40116, published December 19, 1996 by Tang et al.

FLK-1 receptor = molecular target: T1, FLK-1 receptor (Mus musculus, UniProt P35918); experiment: FLK-1 ELISA (kinase activity of the FLK-1 receptor in FLK-1/NIH3T3 cells, VEGF stimulated); format: cell-based
T1 construct: expressed in transfected cells; host or cells: NIH3T3 C7#3
T1 sequence (P35918 20-1345): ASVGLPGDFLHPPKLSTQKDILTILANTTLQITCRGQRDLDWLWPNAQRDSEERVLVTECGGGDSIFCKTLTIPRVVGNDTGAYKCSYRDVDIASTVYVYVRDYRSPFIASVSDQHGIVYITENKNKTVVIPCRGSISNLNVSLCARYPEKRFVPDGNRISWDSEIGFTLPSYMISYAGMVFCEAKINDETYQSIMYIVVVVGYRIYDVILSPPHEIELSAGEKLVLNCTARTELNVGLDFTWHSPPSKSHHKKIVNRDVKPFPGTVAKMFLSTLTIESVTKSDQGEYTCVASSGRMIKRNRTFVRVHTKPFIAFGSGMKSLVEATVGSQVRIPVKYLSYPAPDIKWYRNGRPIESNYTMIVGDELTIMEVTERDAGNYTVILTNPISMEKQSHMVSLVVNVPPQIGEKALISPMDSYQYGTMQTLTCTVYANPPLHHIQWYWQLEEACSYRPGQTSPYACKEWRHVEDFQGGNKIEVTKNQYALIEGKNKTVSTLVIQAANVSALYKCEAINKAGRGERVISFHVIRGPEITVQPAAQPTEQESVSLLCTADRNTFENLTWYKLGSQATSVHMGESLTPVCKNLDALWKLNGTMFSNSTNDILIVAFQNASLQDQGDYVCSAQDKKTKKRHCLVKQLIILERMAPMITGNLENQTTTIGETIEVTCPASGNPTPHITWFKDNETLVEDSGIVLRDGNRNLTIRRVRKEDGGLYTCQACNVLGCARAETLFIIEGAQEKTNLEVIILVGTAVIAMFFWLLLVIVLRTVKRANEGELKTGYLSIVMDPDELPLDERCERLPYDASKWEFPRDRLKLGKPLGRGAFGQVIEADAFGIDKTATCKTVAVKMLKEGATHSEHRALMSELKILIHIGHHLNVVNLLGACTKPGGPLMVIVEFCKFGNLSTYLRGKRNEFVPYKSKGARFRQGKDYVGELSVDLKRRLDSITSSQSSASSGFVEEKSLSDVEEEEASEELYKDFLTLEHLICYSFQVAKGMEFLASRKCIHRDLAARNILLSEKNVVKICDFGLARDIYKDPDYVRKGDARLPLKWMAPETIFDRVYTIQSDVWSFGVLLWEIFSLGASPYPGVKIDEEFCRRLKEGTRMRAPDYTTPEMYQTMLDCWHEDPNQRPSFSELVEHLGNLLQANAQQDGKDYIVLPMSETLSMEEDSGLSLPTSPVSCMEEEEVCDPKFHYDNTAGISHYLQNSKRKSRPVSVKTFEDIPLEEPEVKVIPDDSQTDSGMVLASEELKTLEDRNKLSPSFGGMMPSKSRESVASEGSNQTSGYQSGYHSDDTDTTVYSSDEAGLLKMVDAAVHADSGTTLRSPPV
How it was run: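 FLK-1-expressing NIH3T3 C7#3 cells, starved overnight in 0.1% FBS medium, were treated with compounds at a 1:200 final dilution (0.5% DMSO) for 2 h at 37 °C, with VEGF stimulation. FLK-1 kinase activity was read by ELISA on anti-rabbit IgG plates using affinity-purified anti-FLK-1 antiserum.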

Sequence of PDGF-R (P09619 33-1106, species assumed): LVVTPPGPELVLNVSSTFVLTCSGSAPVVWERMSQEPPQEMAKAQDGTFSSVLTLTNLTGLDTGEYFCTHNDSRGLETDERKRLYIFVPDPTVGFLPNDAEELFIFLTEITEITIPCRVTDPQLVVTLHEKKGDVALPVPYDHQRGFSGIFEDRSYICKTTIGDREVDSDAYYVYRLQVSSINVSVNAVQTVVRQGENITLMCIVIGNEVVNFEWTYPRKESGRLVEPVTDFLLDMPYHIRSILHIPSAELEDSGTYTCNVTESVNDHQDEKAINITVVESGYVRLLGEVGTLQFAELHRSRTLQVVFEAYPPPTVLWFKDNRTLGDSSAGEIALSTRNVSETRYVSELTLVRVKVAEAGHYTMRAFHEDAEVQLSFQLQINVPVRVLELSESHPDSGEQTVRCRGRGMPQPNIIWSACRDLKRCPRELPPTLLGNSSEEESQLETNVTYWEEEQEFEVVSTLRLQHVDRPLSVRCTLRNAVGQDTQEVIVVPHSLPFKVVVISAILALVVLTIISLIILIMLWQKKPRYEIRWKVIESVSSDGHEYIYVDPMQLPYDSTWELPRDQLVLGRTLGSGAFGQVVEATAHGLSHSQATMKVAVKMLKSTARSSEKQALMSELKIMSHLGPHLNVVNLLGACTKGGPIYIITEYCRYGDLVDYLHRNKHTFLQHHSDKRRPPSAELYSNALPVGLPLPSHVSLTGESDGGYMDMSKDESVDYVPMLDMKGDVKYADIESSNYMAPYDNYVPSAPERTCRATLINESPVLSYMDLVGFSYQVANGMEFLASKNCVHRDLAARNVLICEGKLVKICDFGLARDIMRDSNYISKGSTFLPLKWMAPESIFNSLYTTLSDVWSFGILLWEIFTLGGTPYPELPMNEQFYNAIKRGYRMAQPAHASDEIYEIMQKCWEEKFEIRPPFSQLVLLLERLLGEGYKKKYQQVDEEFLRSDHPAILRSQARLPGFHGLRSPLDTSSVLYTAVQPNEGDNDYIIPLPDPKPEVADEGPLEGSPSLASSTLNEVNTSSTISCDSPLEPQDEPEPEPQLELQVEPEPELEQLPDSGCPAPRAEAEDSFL

SMILES	PDGF Kinase %Inhibition (PDGF-R) [%]	Fik Kinase %Inhibition (FLK-1 receptor) [%]
O=C1Nc2ccc(S(=O)(=O)N3CCOCC3)cc2C1=Cc1cc(Br)cc(Br)c1O [10734/F07]	-5.1	6.6
O=C1Nc2ccc(S(=O)(=O)N3CCOCC3)cc2C1=Cc1cccc(F)c1O [10734/F08]	-6.0	4.8
O=C1Nc2ccc(S(=O)(=O)N3CCOCC3)cc2C1=Cc1ccc(O)c(Br)c1 [10734/F09]	-17.4	-3.7
CC(C)(C)c1ccc(C=C2C(=O)Nc3ccc(S(=O)(=O)N4CCOCC4)cc32)cc1 [10734/F10]	25.8	14.8
CCOc1cccc(C=C2C(=O)Nc3ccc(CCCl)cc32)c1O [10734/G02]	14.8	1.5
O=C1Nc2ccc(CCCl)cc2C1=Cc1cc(Cl)cc(Cl)c1O [10734/G03]	-3.8	18.7
O=C1Nc2ccc(CCCl)cc2C1=Cc1cc(Cl)ccc1O [10734/G04]	16.1	-1.1
CCN(CC)c1ccc(C=C2C(=O)Nc3ccc(CCCl)cc32)c(O)c1 [10734/G05]	2.9	7.4
O=C1Nc2ccc(CCCl)cc2C1=Cc1ccc([N+](=O)[O-])cc1 [10734/G06]	-18.8	16.5
O=C1Nc2ccc(CCCl)cc2C1=Cc1cc(Br)cc(Br)c1O [10734/G07]	-25.0	21.9
O=C1Nc2ccc(CCCl)cc2C1=Cc1cccc(F)c1O [10734/G08]	0.2	11.6
O=C1Nc2ccc(CCCl)cc2C1=Cc1ccc(O)c(Br)c1 [10734/G09]	-7.7	8.5
CC(C)(C)c1ccc(C=C2C(=O)Nc3ccc(CCCl)cc32)cc1 [10734/G10]	9.9	10.8
O=C1Nc2ccc(CCCl)cc2C1=Cc1ccc(Br)s1 [10734/G11]	-25.4	8.7
